In patent US11401243B2, “Quinoline derived small molecule inhibitors of nicotinamide N-methyltransferase (NNMT) and uses thereof” (priority 2017, dated 2022):

System: diet-induced obese (DIO) mice
Format: in vivo
Method: 17-week old, male DIO C57Bl/6 mice that have been fed high-fat diet (HFD) for 11 weeks (starting at week 6) were purchased from Jackson Labs (Jackson Laboratory; Bar Harbour, Me., USA). Mice were initially group housed (three/cage) and allowed to acclimate to the colony environment maintained at a constant temperature (21-23° C.) and humidity (40-50%) on a 12-hour light-dark cycle (lights on 0600-1800 h). Upon arrival, mice were continued to be fed HFD (Open Source Diets formula D12451 from Research Diets Inc.; New Brunswick, N.J., USA), containing 45% energy from fat. Water was available ad libitum.
All experiments were carried out in accordance with the Guide for the Care and Use of Laboratory Animals and with approval from the Institutional Animal Care and Use Committee at the University of Texas Medical Branch. Following acclimation for seven days, mice were single-housed and maintained on HFD for 4 additional weeks. Mice were intermittently handled, with body weights and food intake (hopper weights) measured 2-3 times per week. […] Mice in the vehicle cohort received three subcutaneous (SC) saline (1 ml/kg) injections/day (˜0930, 1330, 1730 h) and mice in the treatment cohort received three SC injections of the NNMT inhibitor 5-amino-1MQ at a dose of 20 mg/kg/injection for a total dose of […] of the parent compound (calculated according to free weight) for 11 days. […] Body weight and food intake were measured every other day. On day 12, mice were subjected to a 4 h fast period, then deeply anesthetized using isoflurane and trunk blood was collected by decapitation. Plasma was separated from every sample and the samples were submitted to Texas A&M Veterinary Medical Diagnostic Laboratory (TVMDL; College Station, Tex., USA) for plasma lipid-panel measurements (total cholesterol and triglycerides). Triglycerides values were not included for analysis since the measurements were confounded by sample hemolysis that interfered with the triglyceride reagent in the assay. Epididymal fat pads (epididymal white adipose tissue; EWAT) were excised from every mouse, weighed, and fixed in 10% buffered formalin for further processing.
Formalin-fixed EWAT samples were paraffin embedded, sectioned ([…]), and stained with hematoxylin and eosin (H&E). Images were obtained at 20× magnification using a light microscope (Leica DM LB) and digitally photographed for automated image analysis. Images were analyzed using the “Adiposoft” plug-in software in ImageJ (NIH). […]. Minimum and maximum diameter parameters were assigned to identify appropriate cells for the automated adipocyte area calculations, and cells along the boundary of the images were excluded from analyses. Three to five images/sample were analyzed, with automated analysis confirmed by visual inspection. Images corresponding to each sample were averaged to obtain the mean adipocyte area (μm2) per sample and combined to calculate group mean values for control (vehicle-treated EWAT samples) and treatment (NNMT inhibitor-treated EWAT samples) cohorts.

[1] = DIO mice, 20 mg/kg SC t.i.d., 11 days

For `C[n+]1cccc2c(N)cccc21` [1j, 5-amino-1-methylquinolin-1-ium iodide], the “decrease in mass of EWAT compared with control DIO mice” value [1] was ~35%, the “total cumulative food intake” value [1] was 26.2 ± 1.4 g and the “weight loss at end of treatment” value [1] was 2.0 ± 0.6 g. For the same molecule, the “weight loss from baseline measures” value [1] was ~5.1%, the “body weight over treatment period compared to controls (in words)” value (DIO mice, 20 mg/kg SC three times daily, 11 days) was “progressive loss of body weight” and the “decrease in adipocyte size compared to control DIO mice” value (EWAT histology, 20 mg/kg SC t.i.d., 11 days) was > 30%. The “decrease in adipocyte volume compared to control DIO mice” value (EWAT histology, data not shown) was > 40%, the “tolerability in dose escalation study” value (mouse, in vivo, 60 mg/kg/day) was “well tolerated with no observable adverse effects” and the “total cholesterol levels lower relative to control DIO mice” value (plasma, 4 h fast, day 12) was ~30%.
